Experimental data from ChEMBL document CHEMBL1155183, “Synthesis and SAR of 1,4,5,6-tetrahydropyridazines as potent cannabinoid CB1 receptor antagonists” (Bioorg Med Chem Lett, 2009).
pKi: −log10 of the molar value.

Legend:
Homo sapiens = organism: Homo sapiens; assay: Selectivity ratio of Ki for human CB1 receptor to Ki for human CB2 receptor
Cannabinoid receptor 1 [1] = target: T1, Cannabinoid receptor 1 (Homo sapiens, UniProt P21554); assay: Displacement of [3H]CP-55940 from human CB1 receptor expressed in CHO cells; type: cell-based
T1 sequence (P21554 whole entry): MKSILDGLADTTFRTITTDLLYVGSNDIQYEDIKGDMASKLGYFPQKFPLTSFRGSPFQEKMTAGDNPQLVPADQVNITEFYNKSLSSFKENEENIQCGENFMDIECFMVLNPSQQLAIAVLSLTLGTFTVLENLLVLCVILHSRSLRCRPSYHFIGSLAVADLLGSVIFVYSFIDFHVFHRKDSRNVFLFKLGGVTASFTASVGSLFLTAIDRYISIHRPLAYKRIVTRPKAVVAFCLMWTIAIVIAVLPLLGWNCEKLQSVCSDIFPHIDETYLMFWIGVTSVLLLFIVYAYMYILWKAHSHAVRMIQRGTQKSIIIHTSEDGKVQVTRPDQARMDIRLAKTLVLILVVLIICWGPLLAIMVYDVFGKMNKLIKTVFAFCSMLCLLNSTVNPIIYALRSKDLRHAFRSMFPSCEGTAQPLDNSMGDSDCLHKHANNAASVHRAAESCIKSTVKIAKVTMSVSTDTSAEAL

Cannabinoid receptor 1 [2] = target: T1, Cannabinoid receptor 1; assay: Antagonist activity at human CB1 receptor expressed in CHO cells assessed as inhibition of CP-55940-induced [3H]arachidonic acid release; type: functional, cell-based; conditions: read-out: pA2 (converted)
Cannabinoid receptor 2 = Cannabinoid receptor 2 (Homo sapiens, UniProt P34972); assay: Displacement of [3H]CP-55940 from human CB2 receptor expressed in CHO cells; type: cell-based
Sequence of Cannabinoid receptor 2 (P34972 whole entry): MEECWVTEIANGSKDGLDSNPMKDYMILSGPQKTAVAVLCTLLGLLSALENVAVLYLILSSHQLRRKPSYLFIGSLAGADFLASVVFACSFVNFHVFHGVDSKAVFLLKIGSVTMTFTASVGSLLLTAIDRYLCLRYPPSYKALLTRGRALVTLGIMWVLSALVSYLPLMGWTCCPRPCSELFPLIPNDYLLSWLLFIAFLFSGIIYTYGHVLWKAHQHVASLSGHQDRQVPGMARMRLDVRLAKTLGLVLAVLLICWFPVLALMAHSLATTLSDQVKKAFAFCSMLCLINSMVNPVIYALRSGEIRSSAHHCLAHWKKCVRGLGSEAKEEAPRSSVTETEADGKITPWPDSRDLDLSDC

| Compound | Ratio Ki (Homo sapiens) | pKi (Cannabinoid receptor 1 [1]) | Kb (Cannabinoid receptor 1 [2]) | pKi (Cannabinoid receptor 2) |
| --- | --- | --- | --- | --- |
| CN/C(=N\S(=O)(=O)N1CCC(F)(F)CC1)N1CCC(c2ccccc2)C(c2ccc(Cl)cc2)=N1 (stereo not given) | 5 |  |  |  |
| CN/C(=N\S(=O)(=O)c1ccc(Cl)cc1)N1CCC(c2ccccc2)C(c2ccc(Cl)cc2)=N1 (stereo not given) | 5 | 7.37 | 1 nM | 6.50 |
| CN/C(=N\S(=O)(=O)N1CCCCC1)N1CCC(c2ccccc2)C(c2ccc(Cl)cc2)=N1 (stereo not given) | 5 |  |  |  |
| CNC(=NS(=O)(=O)N1CCCCC1)N1CCC(c2ccccc2)C(c2ccc(Cl)cc2)=N1 (stereo not given) |  | 7.13 | 2 nM | 6.24 |
| CN=C(NS(=O)(=O)N1CCC(F)(F)CC1)N1CC(c2ccccc2)C(c2ccc(Cl)cc2)=N1 (stereo not given) |  | 7.91 | 0.631 nM | 6.66 |
| CNC(=NS(=O)(=O)N1CCC(F)(F)CC1)N1CCC(c2ccccc2)C(c2ccc(Cl)cc2)=N1 (stereo not given) |  | 7.33 | 1 nM | 6.61 |
